The source of these data is US20240299504A1, “COMPOSITIONS AND METHODS FOR TREATING ALZHEIMERS DISEASE” (priority 2023, published 2024).

Molecules are shown by their SMILES.

The test system of one test is GFAP+ astrocytes. The experiment in a line: Co-immunostaining ThioS/GFAP, reactive astrocytes. The format is in vivo, mouse. On the procedure: (§1) Parathyroid hormone (human) was purchased from TOCRIS Bioscience (Cat #3011/1, Abingdon, United Kingdom). WT or 5×FAD mice (both male and female) were treated with PTH1-34 intermittently [once daily injection of hPTH1-34 (50 μg/Kg) or vehicle (0.9% sodium chloride) (as a control) by subcutaneous injection, starting at 2-MO, 5 days per week] as described previously. Mice were then subjected to behavioral tests and sacrificed for examinations of their bone and brain phenotypes at the indicated ages.
DAPI was used for nucleus staining.

The test system of a further test is 5×FAD mice. The experiment in a line: Morris water maze (MWM). The format is in vivo, mouse. The procedure:
Parathyroid hormone (human) was purchased from TOCRIS Bioscience (Cat #3011/1, Abingdon, United Kingdom). […] Mice were then subjected to behavioral tests and sacrificed for examinations of their bone and brain phenotypes at the indicated ages. For Morris water maze (MWM), a circular water tank (diameter of 120 cm) fulfilled with water and a 10 cm platform were used. Non-toxic white powder paint was added to water to make the surface opaque to hide the escape platform. The maze was virtually divided into 4 quadrants, one of which contained the platform 1 cm below the water surface as an escape platform. Mice were trained for 5 days, four trials per day with 20 min intervals between trials and 60 s per trial to locate the hidden platform. Then mice were left on the platform for 15 s to help them remember the location. On the 6th day, the escape platform was removed and mice were placed in water at the point farthest from the platform and recorded for 60 s. The swimming track was recorded using a video tracking system, and the time spent in each platform quadrant and the number of platform crossings were quantified. All behavioral trials were recorded by use of an overhead camera and analyzed by Etho Vision software (Etho Vision, Noldus). Mice were assigned and data were quantified, in a double-blind method.

The subject of test [1] is serum inflammatory cytokines. Put plainly: Mouse serum cytokine array. The format is in vivo. The procedure: as §1
Serum samples from 5×FAD, Tg2576, and their WT control female mice (6˜MO) were collected and used for serum cytokine detection. Cytokines were measured with Mouse Cytokine Array Panel A (R&D Systems, cat #ARY006, Minneapolis, MN, USA). Briefly, the mixture of serum and the biotinylated detection antibodies cocktail is incubated with a Mouse Cytokine Array membrane. Any cytokine/detection antibody complex present was bound on the membrane by its cognate immobilized capture antibody. After washing off the unbound protein, streptavidin-horseradish peroxidase and chemiluminescent detection reagents were added to generate light signals. The light produced at each spot is proportional to the amount of cytokine binding.

In test [2] the test system is proinflammatory cytokines and chemokines. The experiment in a line: qRT-PCR of proinflammatory cytokines and chemokines in cortex and hippocampus. It is filed as in vivo, mouse. As to conditions: 6-MO 5×FAD female mice. On the procedure: as §1
Total RNA was extracted from cortex, hippocampus, or cultured astrocytes using a TRizol reagent (Invitrogen, cat #15596-026, Carlsbad, CA, USA) as previously described. Purified RNA (1-5 μg) was used for cDNA synthesis with the Revert Aid First Strand cDNA Synthesis Kit (Thermo Scientific, cat #K1621, Waltham, MA, USA). The cDNA products were subjected to subsequent quantitative PCR (qPCR) using the QuantiFast SYBR Green PCR Kit (QIA-GEN, cat #204057, Hilden, Germany) with a qPCR System (StepOne Plus). Each sample was repeated at least 3 times, and the mRNA level was normalized to GAPDH using the 2^−ΔΔCt method.
On the technique in general: In qPCR the cycle at which signal appears reflects the starting amount.

Regarding `CC[C@H](C)[C@H](NC(=O)[C@H](CCC(=O)O)NC(=O)[C@H](CO)NC(=O)[C@@H](NC(=O)[C@@H](N)CO)C(C)C)C(=O)N[C@@H](CCC(N)=O)C(=O)N[C@@H](CC(C)C)C(=O)N[C@@H](CCSC)C(=O)N[C@@H](Cc1cnc[nH]1)C(=O)N[C@@H](CC(N)=O)C(=O)N[C@@H](CC(C)C)C(=O)NCC(=O)N[C@@H](CCCCN)C(=O)N[C@@H](Cc1cnc[nH]1)C(=O)N[C@@H](CC(C)C)C(=O)N[C@@H](CC(N)=O)C(=O)N[C@@H](CO)C(=O)N[C@@H](CCSC)C(=O)N[C@@H](CCC(=O)O)C(=O)N[C@@H](CCCN=C(N)N)C(=O)N[C@H](C(=O)N[C@@H](CCC(=O)O)C(=O)N[C@@H](Cc1c[nH]c2ccccc12)C(=O)N[C@@H](CC(C)C)C(=O)N[C@@H](CCCN=C(N)N)C(=O)N[C@@H](CCCCN)C(=O)N[C@@H](CCCCN)C(=O)N[C@@H](CC(C)C)C(=O)N[C@@H](CCC(N)=O)C(=O)N[C@@H](CC(=O)O)C(=O)N[C@H](C(=O)N[C@@H](Cc1cnc[nH]1)C(=O)N[C@@H](CC(N)=O)C(=O)N[C@@H](Cc1ccccc1)C(=O)O)C(C)C)C(C)C` [PTH1-34], the “inhibition of glial cell activation (GFAP, IBA1), by sex” value with GFAP+ astrocytes (female and male 5×FAD mice, 6-MO) was “detectable in both female and male 5×FAD mice”. The “GFAP+ fluorescence intensity” value in the test on GFAP+ astrocytes (layers of cortex (except layer II/III) and DG region of hippocampus, ~6 MO female 5×FAD vs Veh) is reported as “lower in PTH1-34 treated 5×FAD mice than that of Veh controls”. The “effect on glial cells (GFAP, IBA1)” value in the test on GFAP+ astrocytes (wild-type (WT) female mice, 6-MO) was “little effect”. In addition, the “plaque-associated GFAP fluorescence” value in the test on GFAP+ astrocytes (~6 MO female 5×FAD cortex and hippocampus vs Veh) is “diminished”. Also, the “MWM, latency to reach hidden platform during training” value with 5×FAD mice (5×FAD female mice ~5-MO vs 5×FAD Veh) is reported as “faster learning of the hidden platform during MWM tests”. Moreover, the “MWM, spatial memory (time in target quadrant, target zone crossovers)” value in the test on 5×FAD mice (5×FAD female mice ~5-MO vs 5×FAD Veh, testing day) was “better spatial memory of the platform location”. Also, the “MWM, spatial learning and memory” value in the test on 5×FAD mice (5×FAD male mice ~5-MO vs Veh) is given as “Little to no improvement”. Besides, in test [1] (6-MO 5×FAD female mice), the “elevated serum factors (IL-1rα, IL-2, IL-3, IL-4, IL-10, CXCL9, CCL3)” value is listed as “all reduced” and the “serum inflammation-associated factors IL1β, TNFα, TREM-1, CCL11, CCL5” value was “reduced”. Also, the “serum factor CCL4” value in test [1] (6-MO 5×FAD female mice (CCL4 decreased in 5×FAD)) is “restored”. In addition, the “expression of upregulated inflammatory cytokines or chemokines (RT-qPCR)” value in test [2] (cortex and hippocampus) is recorded as “largely brought down to nearly normal levels”. Further, the “expression of GM-CSF, RANKL and OPG (RT-qPCR)” value in test [2] (cortex) is “unaffected”.
